Data taken from patent publication US20170107180A1, “GLYCOSIDASE INHIBITORS AND USES THEREOF” (Alectos Therapeutics Inc., priority 2012, published 2017).
Counter-ions that a name gives are not always drawn.

How the values were obtained:
human O-GlcNAcase = target: T1, human O-GlcNAcase (Homo sapiens, UniProt O60502); test: Determination of KI values for inhibition of O-GlcNAcase activity (fluorescence-based hOGA Ki); format: biochemical; conditions: purified human O-GlcNAcase 0.7 nM, 2 mM 4-Methylumbelliferyl N-acetyl-β-D-glucosaminide, pH 7.0, Cheng-Prusoff
T1 sequence (O60502 1-916): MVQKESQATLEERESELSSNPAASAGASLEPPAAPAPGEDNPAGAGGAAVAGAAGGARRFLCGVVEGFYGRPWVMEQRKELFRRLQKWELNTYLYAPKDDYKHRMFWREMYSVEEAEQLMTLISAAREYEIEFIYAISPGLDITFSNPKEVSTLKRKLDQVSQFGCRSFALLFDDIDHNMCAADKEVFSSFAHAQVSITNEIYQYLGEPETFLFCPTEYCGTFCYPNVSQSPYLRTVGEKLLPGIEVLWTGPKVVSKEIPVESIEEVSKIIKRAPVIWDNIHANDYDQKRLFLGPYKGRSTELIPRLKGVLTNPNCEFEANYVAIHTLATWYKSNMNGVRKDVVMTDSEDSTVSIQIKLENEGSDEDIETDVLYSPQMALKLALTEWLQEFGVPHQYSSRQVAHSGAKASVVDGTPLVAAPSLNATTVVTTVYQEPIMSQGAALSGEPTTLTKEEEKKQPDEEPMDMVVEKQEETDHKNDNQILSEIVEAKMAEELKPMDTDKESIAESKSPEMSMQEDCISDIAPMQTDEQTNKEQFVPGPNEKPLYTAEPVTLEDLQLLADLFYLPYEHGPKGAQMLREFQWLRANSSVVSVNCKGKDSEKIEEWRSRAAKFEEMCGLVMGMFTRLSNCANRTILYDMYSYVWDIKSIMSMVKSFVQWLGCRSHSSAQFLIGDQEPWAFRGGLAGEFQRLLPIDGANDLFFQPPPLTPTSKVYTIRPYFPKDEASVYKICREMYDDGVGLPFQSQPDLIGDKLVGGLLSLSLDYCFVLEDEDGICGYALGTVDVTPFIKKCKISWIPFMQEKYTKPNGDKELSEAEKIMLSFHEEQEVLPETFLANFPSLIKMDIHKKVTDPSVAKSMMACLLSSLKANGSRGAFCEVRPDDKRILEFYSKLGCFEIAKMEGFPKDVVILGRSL
Description: Experimental procedure for kinetic analyses: Enzymatic reactions were carried out in a reaction containing 50 mM NaH2PO4, 100 mM NaCl and 0.1% BSA (pH 7.0) using 2 mM 4-Methylumbelliferyl N-acetyl-β-D-glucosaminide dihydrate (Sigma M2133) dissolved in ddH2O, as a substrate. The amount of purified human O-GlcNAcase enzyme used in the reaction was 0.7 nM. Test compound of varying concentrations was added to the enzyme prior to initiation of the reaction. The reaction was performed at room temperature in a 96-well plate and was initiated with the addition of substrate. The production of fluorescent product was measured every 60 sec for 45 min with a Tecan Infinite M200 plate-reader with excitation at 355 nm and emission detected at […], with 4-Methylumbelliferone (Sigma M1381) used to produce a standard curve. The slope of product production was determined for each concentration of compound tested and plotted, using standard curve fitting algorithms for sigmoidal dose response curves. The values for a four parameter logistic curve fit of the data were determined.
KI values were determined using the Cheng-Prusoff equation; the Km of O-GlcNAcase for substrate was 0.2 mM.

[1] = Determination of apparent permeability (Papp), bi-directional transport in LLC-PK1 cells; format: in vitro ADME; conditions: pig, test compound 1 μM, t=3 h, average of A to B and B to A
Description: Bi-directional transport is evaluated in LLC-PK1 cells in order to determine apparent permeability (Papp). LLC-PK1 cells can form a tight monolayer and therefore can be used to assess vectorial transport of compounds from basolateral to apical (B→A) and from apical to basolateral (A→B).
To determine Papp, LLC-PK1 cells are cultured in 96-well transwell culture plates (Millipore). Solutions containing the test compounds (1 μM) are prepared in Hank's Balanced Salt Solution with 10 mM HEPES. Substrate solution (150 μL) is added to either the apical (A) or the basolateral (B) compartment of the culture plate, and buffer (150 μL) is added to the compartment opposite to that containing the compound. At t=3 h, 50 μL samples are removed from both sides of monolayers dosed with test compound and placed in 96 well plates, scintillant (200 μL) or internal standard (100 μL labetolol 1 μM) is added to the samples and concentration is determined by liquid scintillation counting in a MicroBeta Wallac Trilux scintillation counter (Perkin Elmer Life Sciences, Boston, Mass.) or by LCMS/MS (Applied Biosystems SCIEX API 5000 triple quadruple mass spectrometer). [^3H]Verapamil (1 μM) is used as the positive control. The experiment is performed in triplicate.
The apparent permeability, Papp, is calculated by the following formula for samples taken at t=3 h: […]

Structure (SMILES) | Ki (human O-GlcNAcase) [nM] | Papp at 3 h, 1 μM [1] [×10⁻⁶ cm/s]
CNC(=O)[C@@H]1[C@@H](O)[C@@H](O)[C@H](O)[C@@H](CO)N1C [Example 1, (2S,3R,4S,5R,6R)-3,4,5-trihydroxy-6-(hydroxymethyl)-N,1-dimethylpiperidine-2-carboxamide hydrochloride] | 1470 | 
CNC(=O)[C@@H]1[C@@H](O)[C@@H](O)[C@H](O)[C@@H](CO)N1C/C=C/c1ccc(-c2ccccc2)cc1 [Example 2, (2S,3R,4S,5R,6R)-1-((E)-3-([1,1′-biphenyl]-4-yl)allyl)-3,4,5-trihydroxy-6-(hydroxymethyl)-N-methylpiperidine-2-carboxamide] | 1810 | 
CCNC(=O)[C@H]1N[C@H](CO)[C@@H](O)[C@H](O)[C@@H]1O [Example 4, (2S,3R,4S,5R,6R)-N-ethyl-3,4,5-trihydroxy-6-(hydroxymethyl)piperidine-2-carboxamide hydrochloride] | 3300 | 
CNC(=O)[C@@H]1[C@@H](O)[C@@H](O)[C@H](O)[C@@H](CO)N1CCCc1ccccc1 [Example 5, (2S,3R,4S,5R,6R)-3,4,5-trihydroxy-6-(hydroxymethyl)-N-methyl-1-(3-phenylpropyl)piperidine-2-carboxamide] | 1700 | 
CCNC(=O)[C@@H]1[C@@H](O)[C@@H](O)[C@H](O)[C@@H](CO)N1CCCc1ccccc1 [Example 6, (2S,3R,4S,5R,6R)-N-ethyl-3,4,5-trihydroxy-6-(hydroxymethyl)-1-(3-phenylpropyl)piperidine-2-carboxamide] | 2500 | 

Compounds with a lower Ki (human O-GlcNAcase), results first:

Ki (human O-GlcNAcase) [nM] | Papp at 3 h, 1 μM [1] [×10⁻⁶ cm/s] | Structure (SMILES)
620 |  | CNC(=O)[C@@H]1[C@@H](O)[C@@H](O)[C@H](O)[C@@H](CO)N1CCCCC(C)C [Example 8, (2S,3R,4S,5R,6R)-3,4,5-trihydroxy-6-(hydroxymethyl)-N-methyl-1-(5-methylhexyl)piperidine-2-carboxamide]
252 |  | CNC(=O)[C@@H]1[C@@H](O)[C@@H](O)[C@H](O)[C@@H](CO)N1CCCCc1ccccc1 [Example 7, (2S,3R,4S,5R,6R)-3,4,5-trihydroxy-6-(hydroxymethyl)-N-methyl-1-(4-phenylbutyl)piperidine-2-carboxamide]
165 |  | CNC(=O)[C@H]1N[C@H](CO)[C@@H](O)[C@H](O)[C@@H]1O [(2S,3R,4S,5R,6R)-3,4,5-trihydroxy-6-(hydroxymethyl)-N-methylpiperidine-2-carboxamide (hydrochloride salt), reference compound]
9.4 | 3 | CNC(=O)[C@@H]1[C@@H](O)[C@@H](O)[C@H](O)[C@@H](CO)N1CCCc1ccc(-c2ccccc2)cc1 [Example 3, (2S,3R,4S,5R,6R)-1-(3-([1,1′-biphenyl]-4-yl)propyl)-3,4,5-trihydroxy-6-(hydroxymethyl)-N-methylpiperidine-2-carboxamide]
